From PubChem BioAssay AID248 (DTP/NCI, 2004)
Where “and” joins values, the source holds several entries; their conditions need not be identical. Equal values may be shown once. Toxic doses and inconclusive results are not listed. No stated cut-off is given here; in the data, active means T/C of 150% or more; inactive means T/C below 125%.

Tested on: L1210 leukemia ip in BDF1 mice, survival T/C
Assay: NCI In Vivo Anticancer Drug Screen. Data for tumor model L1210 Leukemia (intraperitoneal) in B6D2F1 (BDF1) mice
Details: endpoint: mean survival time, higher = longer survival
Procedure, shortened: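 Antitumor effect is assessed in tumor-bearing animals. Survival in the compound arm is compared with a vehicle-dosed control arm and expressed as their quotient.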

[1] = dose: 100.0 mg/kg/injection, schedule: Q04DX003 (ip), vehicle: Klucel (hydroxypropylcellulose) (HPC)
[2] = dose: 200.0 mg/kg/injection, schedule: Q04DX003 (ip), vehicle: Klucel (hydroxypropylcellulose) (HPC)
[3] = dose: 100.0 mg/kg/injection, schedule: Q01DX009 (ip), vehicle: Klucel (hydroxypropylcellulose) (HPC)
[4] = dose: 200.0 mg/kg/injection, schedule: Q01DX009 (ip), vehicle: Klucel (hydroxypropylcellulose) (HPC)
[5] = dose: 100.0 mg/kg/injection, schedule: Q01DX001 (ip), vehicle: saline
[6] = dose: 200.0 mg/kg/injection, schedule: Q01DX001 (ip), vehicle: saline
[7] = dose: 400.0 mg/kg/injection, schedule: Q01DX001 (ip), vehicle: saline
[8] = dose: 100.0 mg/kg/injection, schedule: Q01DX009 (ip), vehicle: saline
[9] = dose: 200.0 mg/kg/injection, schedule: Q01DX009 (ip), vehicle: saline
[10] = dose: 400.0 mg/kg/injection, schedule: Q01DX009 (ip), vehicle: saline
[11] = dose: 12.5 mg/kg/injection, schedule: Q04DX002 (ip), vehicle: saline
[12] = dose: 25.0 mg/kg/injection, schedule: Q04DX002 (ip), vehicle: saline
[13] = dose: 50.0 mg/kg/injection, schedule: Q04DX002 (ip), vehicle: saline
[14] = dose: 50.0 mg/kg/injection, schedule: Q01DX009 (ip), vehicle: saline with Tween-80
[15] = dose: 12.5 mg/kg/injection, schedule: Q01DX009 (ip), vehicle: saline with Tween-80
[16] = dose: 25.0 mg/kg/injection, schedule: Q01DX009 (ip), vehicle: saline with Tween-80

Measured: T/C

O=NN(CC(=O)O)C(c1ccccc1)(c1ccccc1)c1ccccc1Cl
inactive: [1] 95 % of control | [2] 93 % of control

CN(C)C(=O)Sc1ccc(S(=O)(=O)F)cc1[N+](=O)[O-]
inactive: [3] 110 % of control | [4] 102 % of control

CC(=O)NC1CCCCC1c1ccc(C2CCCCC2NC(C)=O)cc1 (stereo not drawn)
inactive: [5] 98 % of control | [6] 98 % of control

N#Cc1cnc(SCC(=O)O)nc1N
inactive: [5] 96 % of control | [6] 102 % of control | [7] 102 % of control

CN(C)CCc1ccc(Nc2ccnc3cc(Cl)ccc23)cc1
inactive: dose: 75.0 mg/kg/injection, schedule: Q01DX001 (ip), vehicle: saline 101 % of control | dose: 150.0 mg/kg/injection, schedule: Q01DX001 (ip), vehicle: saline 98 % of control | dose: 300.0 mg/kg/injection, schedule: Q01DX001 (ip), vehicle: saline 95 % of control

COc1ccc(CNCC(=O)O)cc1
inactive: [8] 100 % of control | dose: 100.0 mg/kg/injection, schedule: Q04DX003 (ip), vehicle: saline 96 % of control | [9] 100 % of control | dose: 200.0 mg/kg/injection, schedule: Q04DX003 (ip), vehicle: saline 98 % of control | [10] 105 % of control | dose: 400.0 mg/kg/injection, schedule: Q04DX003 (ip), vehicle: saline 96 % of control

O=[N+]([O-])c1ccc(S(=O)(=O)OCc2ccccc2COS(=O)(=O)c2ccc([N+](=O)[O-])cc2)cc1
inactive: dose: 50.0 mg/kg/injection, schedule: Q04DX002 (ip), vehicle: saline with Tween-80 106 % of control | dose: 100.0 mg/kg/injection, schedule: Q04DX002 (ip), vehicle: saline with Tween-80 101 % of control

c1ccc(-c2sc(-c3ccccc3)c(-c3ccccc3)c2-c2ccccc2)cc1
inactive: [1] 93 % of control | [2] 95 % of control | dose: 400.0 mg/kg/injection, schedule: Q04DX003 (ip), vehicle: Klucel (hydroxypropylcellulose) (HPC) 95 % of control

N=C(N=c1cc(C(=O)NC(=N)NC(=N)Nc2ccccc2)n(C(=N)NC(=N)Nc2ccccc2)c(C(=O)NC(=N)NC(=N)Nc2ccccc2)c1)NC(=N)Nc1ccccc1
inactive: [8] 105 % of control | [9] 94 % of control | [10] 87 % of control

CC(C)(C)OC(=O)NOC(=O)c1ccc([N+](=O)[O-])cc1
inactive: dose: 100.0 mg/kg/injection, schedule: Q04DX002 (ip), vehicle: Klucel (hydroxypropylcellulose) (HPC) 104 % of control | dose: 200.0 mg/kg/injection, schedule: Q04DX002 (ip), vehicle: Klucel (hydroxypropylcellulose) (HPC) 96 % of control | dose: 400.0 mg/kg/injection, schedule: Q04DX002 (ip), vehicle: Klucel (hydroxypropylcellulose) (HPC) 107 % of control

O=C1c2ccccc2C(=O)c2ccccc21
inactive: [3] 102 % of control | [4] 88 % of control | dose: 400.0 mg/kg/injection, schedule: Q01DX009 (ip), vehicle: Klucel (hydroxypropylcellulose) (HPC) 100 % of control

Cc1cccc(C)c1NC(=O)Nc1cccc2ccccc12
inactive: dose: 100.0 mg/kg/injection, schedule: Q01DX009 (ip), vehicle: gum acacia 93 % of control | dose: 100.0 mg/kg/injection, schedule: Q04DX003 (ip), vehicle: gum acacia 98 % of control | dose: 200.0 mg/kg/injection, schedule: Q04DX003 (ip), vehicle: gum acacia 95 % of control | dose: 400.0 mg/kg/injection, schedule: Q01DX009 (ip), vehicle: gum acacia 94 % of control | dose: 400.0 mg/kg/injection, schedule: Q04DX003 (ip), vehicle: gum acacia 91 % of control

CCC(C(=O)C(C)C(O)C(C)CCc1ccc(C)c(O)c1C(=O)O)C1OC(CC)(C2CCC(O)(CC)C(C)O2)CC1C (stereo not drawn)
inactive: dose: 6.25 mg/kg/injection, schedule: Q04DX002 (ip), vehicle: saline 100 % of control | [11] 92 % of control | [12] 92 % of control | [13] 103 % of control

CCS(=O)(=O)c1ccc(NC(=O)OC2CC(C)CCC2C(C)C)cc1 (stereo not drawn)
inactive: dose: 100.0 mg/kg/injection, schedule: Q01DX001 (ip), vehicle: carboxymethylcellulose (CMC) 100 % of control | dose: 200.0 mg/kg/injection, schedule: Q01DX001 (ip), vehicle: carboxymethylcellulose (CMC) 102 % of control | dose: 400.0 mg/kg/injection, schedule: Q01DX001 (ip), vehicle: carboxymethylcellulose (CMC) 91 % of control

CC/C(=C/c1ccccc1)C(N)=O
inactive: dose: 100.0 mg/kg/injection, schedule: Q01DX001 (ip), vehicle: steriod suspending solution 87 % of control | dose: 200.0 mg/kg/injection, schedule: Q01DX001 (ip), vehicle: steriod suspending solution 103 % of control

O=C(CCCCCCC(=O)C[n+]1ccccc1Br)C[n+]1ccccc1Br
inactive: dose: 1.4 mg/kg/injection, schedule: Q04DX003 (ip), vehicle: saline 105 % of control | dose: 2.8 mg/kg/injection, schedule: Q04DX003 (ip), vehicle: saline 100 % of control | dose: 5.6 mg/kg/injection, schedule: Q04DX003 (ip), vehicle: saline 97 % of control

Cc1ccc(C)c(NC(=O)N2CCN(C)CC2)c1
inactive: [8] 97 % of control | [9] 100 % of control

S=C(S)NNc1ccccc1
inactive: dose: 25.0 mg/kg/injection, schedule: Q04DX003 (ip), vehicle: saline with Tween-80 104 % of control | [14] 86 % of control | dose: 50.0 mg/kg/injection, schedule: Q04DX003 (ip), vehicle: saline with Tween-80 109 % of control | dose: 100.0 mg/kg/injection, schedule: Q01DX009 (ip), vehicle: saline with Tween-80 86 % of control | dose: 100.0 mg/kg/injection, schedule: Q04DX003 (ip), vehicle: saline with Tween-80 109 % of control

COc1ccc(C2C(C(=O)N3CCN(C)CC3)C2c2ccc(OC)cc2)cc1 (stereo not drawn)
inactive: [11] 102 % of control | [12] 102 % of control | [13] 102 % of control

O=C(C=C(C(F)(F)F)C(F)(F)F)c1ccc(C(=O)C=C(C(F)(F)F)C(F)(F)F)cc1
inactive: [15] 89 % of control | [16] 100 % of control | [14] 94 % of control and 101 % of control

O=[N+]([O-])c1ccc(N/N=C(\c2ccccc2)c2ccc(O)cc2O)c([N+](=O)[O-])c1
inactive: dose: 100.0 mg/kg/injection, schedule: Q01DX001 (ip), vehicle: other 91 % of control | dose: 100.0 mg/kg/injection, schedule: Q04DX003 (ip), vehicle: other 95 % of control | dose: 200.0 mg/kg/injection, schedule: Q01DX001 (ip), vehicle: other 91 % of control | dose: 200.0 mg/kg/injection, schedule: Q04DX003 (ip), vehicle: other 96 % of control | dose: 400.0 mg/kg/injection, schedule: Q01DX001 (ip), vehicle: other 95 % of control | dose: 400.0 mg/kg/injection, schedule: Q04DX003 (ip), vehicle: other 96 % of control

S=C=Nc1ccc(Cl)c(Cl)c1
inactive: [15] 104 % of control | [16] 94 % of control | [14] 102 % of control

O=C(NNCc1ccccc1)c1ccccn1
inactive: dose: 12.5 mg/kg/injection, schedule: Q01DX009 (ip), vehicle: Klucel (hydroxypropylcellulose) (HPC) 102 % of control | dose: 25.0 mg/kg/injection, schedule: Q01DX009 (ip), vehicle: Klucel (hydroxypropylcellulose) (HPC) 94 % of control | dose: 50.0 mg/kg/injection, schedule: Q01DX009 (ip), vehicle: Klucel (hydroxypropylcellulose) (HPC) 97 % of control | [3] 94 % of control

CC(C)C1(c2ccsc2)NC(=O)NC1=O (stereo not drawn)
inactive: [5] 94 % of control | [6] 100 % of control | [7] 91 % of control
